These results are taken from PMC4342496 (The Journal of Biological Chemistry, 2015).

One data set addresses T1, CpIMPDH (Cryptosporidium parvum, UniProt Q8T6T2).
T1 construct: gene 56k.02; recombinant
T1 sequence (Q8T6T2 1-400): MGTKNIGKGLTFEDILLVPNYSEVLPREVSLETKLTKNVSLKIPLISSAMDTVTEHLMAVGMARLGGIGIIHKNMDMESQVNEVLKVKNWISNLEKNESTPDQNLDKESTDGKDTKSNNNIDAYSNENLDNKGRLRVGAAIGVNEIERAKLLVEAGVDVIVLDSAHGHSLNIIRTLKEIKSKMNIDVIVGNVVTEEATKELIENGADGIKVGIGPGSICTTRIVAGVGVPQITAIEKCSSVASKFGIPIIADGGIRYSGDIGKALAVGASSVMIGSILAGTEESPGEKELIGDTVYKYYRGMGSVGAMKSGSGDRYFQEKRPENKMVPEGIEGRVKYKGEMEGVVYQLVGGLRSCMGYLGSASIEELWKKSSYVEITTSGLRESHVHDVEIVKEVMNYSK
Nature of the data set: NADH production, A340. The format is biochemical. From the text:
NADH production, A340 on CpIMPDH

The next data set concerns the target T2, CjIMPDHΔS (Campylobacter jejuni, UniProt Q0P9J4, INS91G/DEL92-195).
T2 construct: gene guaB
T2 sequence (Q0P9J4 1-485 INS91G/DEL92-195): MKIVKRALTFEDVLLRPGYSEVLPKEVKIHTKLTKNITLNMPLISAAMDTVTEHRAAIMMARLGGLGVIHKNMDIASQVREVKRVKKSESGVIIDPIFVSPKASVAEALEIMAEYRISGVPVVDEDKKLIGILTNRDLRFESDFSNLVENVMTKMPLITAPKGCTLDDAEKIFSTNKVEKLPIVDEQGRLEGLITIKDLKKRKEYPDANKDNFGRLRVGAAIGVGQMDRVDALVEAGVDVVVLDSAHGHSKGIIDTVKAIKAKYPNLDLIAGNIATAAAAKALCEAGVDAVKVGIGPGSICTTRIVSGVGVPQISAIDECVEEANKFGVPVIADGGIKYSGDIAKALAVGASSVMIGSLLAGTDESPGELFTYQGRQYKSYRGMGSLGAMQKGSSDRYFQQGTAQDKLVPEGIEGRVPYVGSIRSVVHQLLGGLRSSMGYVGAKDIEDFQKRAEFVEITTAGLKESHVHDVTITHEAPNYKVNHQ
Nature of the data set: NADH production, A340. The format is biochemical. As to conditions: pH 8.0, 1 mM IMP, NAD+ about 2.5 x Km, 10 min preincubation, room temperature. An excerpt:
NADH production, A340 on CjIMPDHΔS

Another data set has as its target T3, VcIMPDH (Vibrio cholerae, UniProt Q9KTW3).
T3 construct: gene guaB; full-length wild type, N-terminal His6 tag, recombinant E. coli; tetramer
T3 sequence (Q9KTW3 1-489): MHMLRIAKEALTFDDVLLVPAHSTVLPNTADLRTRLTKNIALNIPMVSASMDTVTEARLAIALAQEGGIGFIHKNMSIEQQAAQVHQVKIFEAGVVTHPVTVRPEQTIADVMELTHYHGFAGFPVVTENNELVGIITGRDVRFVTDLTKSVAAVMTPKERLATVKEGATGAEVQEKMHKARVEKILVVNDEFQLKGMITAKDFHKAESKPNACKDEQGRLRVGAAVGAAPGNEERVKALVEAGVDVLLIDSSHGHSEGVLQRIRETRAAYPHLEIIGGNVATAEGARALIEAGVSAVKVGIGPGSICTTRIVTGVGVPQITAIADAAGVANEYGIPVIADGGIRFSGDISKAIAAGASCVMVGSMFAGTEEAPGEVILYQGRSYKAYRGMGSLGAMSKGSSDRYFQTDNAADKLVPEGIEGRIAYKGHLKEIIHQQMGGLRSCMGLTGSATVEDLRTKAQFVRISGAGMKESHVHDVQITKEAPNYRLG
As to the kind of experiment: NADH production, A340. It is filed as biochemical. As to conditions: read-out: IC50 / 1. An excerpt:
NADH production, A340 on VcIMPDH

Data set [1] has as its target T4, CjIMPDH (Campylobacter jejuni, UniProt Q0P9J4).
T4 construct: gene guaB; full-length wild type, N-terminal His6 tag, pMCSG7, E. coli; tetramer
T4 sequence (Q0P9J4 1-485): T2 sequence (Q0P9J4 1-485 INS91G/DEL92-195)
As to the kind of experiment: NADH production, A340. It is filed as biochemical. From the text:
NADH production, A340 on CjIMPDH

Data set [2] has as its system NC(=O)c1ccc[n+]([C@@H]2O[C@H](COP(=O)(O)OP(=O)(O)OC[C@H]3O[C@@H](n4cnc5c(N)ncnc54)[C@H](O)[C@@H]3O)[C@@H](O)[C@H]2O)c1. As to the kind of experiment: purified protein. Particulars: pH 8.0; 25.0 °C.
Data set [3] deals with T4, CjIMPDH. Nature of the data set: steady-state kinetics, A340. As to conditions: substrate inhibition by NAD+; pH 8.0, 25 °C. It is filed as biochemical. An excerpt: steady-state kinetics, A340 on CjIMPDH
The target in another data set is T5, BaIMPDH (Bacillus anthracis, UniProt A0A6L8P2U9).
T5 construct: gene guaB
T5 sequence (A0A6L8P2U9 1-487 limits assumed): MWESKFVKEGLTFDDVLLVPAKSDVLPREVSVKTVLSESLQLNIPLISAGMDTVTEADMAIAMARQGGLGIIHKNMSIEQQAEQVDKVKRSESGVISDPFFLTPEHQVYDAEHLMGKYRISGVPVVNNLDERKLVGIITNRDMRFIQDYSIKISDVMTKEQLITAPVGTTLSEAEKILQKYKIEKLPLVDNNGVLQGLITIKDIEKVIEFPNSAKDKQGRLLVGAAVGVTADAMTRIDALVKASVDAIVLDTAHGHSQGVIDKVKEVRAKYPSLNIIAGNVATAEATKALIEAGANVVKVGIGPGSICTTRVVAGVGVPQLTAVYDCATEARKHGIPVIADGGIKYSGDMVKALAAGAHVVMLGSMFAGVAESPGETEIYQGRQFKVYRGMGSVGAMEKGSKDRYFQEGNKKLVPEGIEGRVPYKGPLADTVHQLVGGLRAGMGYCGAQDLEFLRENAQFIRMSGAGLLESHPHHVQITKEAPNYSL
It is filed as biochemical.

Where two headings read alike, the source gives them in different places.

As for `Cn1nc(CC(=O)Nc2ccc3oc4c(c3c2)CCCC4)c2ccccc2c1=O` [compound 3, 3,4-dihydro-3-methyl-4-oxo-N-(6,7,8,9-tetrahydro2-dibenzofuranyl)-1-phthalazineacetamide], the IC50 at CpIMPDH (read-out: IC50 / 3) is 24 ± 6 nM; at CjIMPDHΔS (read-out: IC50 / 3) it was 200 ± 20 nM; on VcIMPDH, above 5000 nM; at CjIMPDH [1] (read-out: IC50 / 3), 169 ± 20 nM.
As to `C[C@H](Oc1cccc2ccccc12)C(=O)Nc1ccc2oc(-c3ccncc3)nc2c1` [compound 7, 2-(1-naphthalenyloxy)-N-[2-(4-pyridinyl)-5-benzoxazolyl)-(2S)-propanamide], the IC50 on CjIMPDHΔS (read-out: IC50 / 7) was 19 ± 2 nM; on VcIMPDH it was above 5000 nM; at CjIMPDH [1] (read-out: IC50 / 7) it was 13 ± 2 nM.
Consider `C=C(C)c1cccc(C(C)(C)NC(=O)Nc2ccc(Br)cc2)c1` [compound 4], for which the IC50 was 11 ± 5 nM on CpIMPDH (read-out: IC50 / 4), 67 ± 13 nM at CjIMPDHΔS (read-out: IC50 / 4), above 5000 nM at VcIMPDH and 36 ± 8 nM on CjIMPDH [1] (read-out: IC50 / 4).
One may read the Km as the substrate concentration at which the rate is half of its maximum. Regarding BaIMPDH (Bacillus anthracis), in data set [2], the Km was 550 ± 100 µM.
Consider `C[C@@H](Oc1cc[n+]([O-])c2ccccc12)c1cn(-c2ccc(Cl)cc2)nn1` [compound 1, 4-[(1R)-[1-(4-chlorophenyl)-1H-1,2,3-triazol-4yl]ethoxy]quinoline-1-oxide], for which the IC50 on CpIMPDH (read-out: IC50 / 1) is 9 ± 2 nM; at CjIMPDHΔS (read-out: IC50 / 1) it was 107 ± 8 nM; on CjIMPDH [1] (read-out: IC50 / 1), 140 ± 30 nM.
On to `C/C(=N\O)c1cccc(C(C)(C)NC(=O)Nc2ccc(Br)cc2)c1` [compound 6], for which the IC50 on CpIMPDH (read-out: IC50 / 6) is 8 ± 2 nM; at CjIMPDHΔS (read-out: IC50 / 6), 46 ± 4 nM; at VcIMPDH it was above 5000 nM; at CjIMPDH [1] (read-out: IC50 / 6), 29 ± 4 nM.
Consider `NC(=O)c1ccc[n+]([C@@H]2O[C@H](COP(=O)(O)OP(=O)(O)OC[C@H]3O[C@@H](n4cnc5c(N)ncnc54)[C@H](O)[C@@H]3O)[C@@H](O)[C@H]2O)c1` [NAD^+], for which the results for the “NAD^+ Kii” value at CjIMPDH [3] and at BaIMPDH were 20 ± 2 mM and 3.9 ± 0.8 mM, respectively.
